Assay results reported in ChEMBL document CHEMBL1201862, “PubChem BioAssay data set” (2004).
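Method: 48-hour compound exposure of cells in 96-well plates, five concentrations, linear interpolation of endpoints. At the GI50, growth is halved.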 Active and inactive are the calls of the source. Rule as the data show it: active = GI50 up to about 1.1 µM and inactive = higher.

Legend:
Experiment in all cases: inhibition of tumour cell growth, NCI panel, 48 h
786-0 = tested on: 786-0
A549 = tested on: A549
CAKI-1 = tested on: CAKI-1
COLO 205 = tested on: COLO 205
DMS-114 = tested on: DMS-114
DMS-273 = tested on: DMS-273
HCC 2998 = tested on: HCC 2998
HCT-116 = tested on: HCT-116
HL-60 = tested on: HL-60
HOP-62 = tested on: HOP-62
HOP-92 = tested on: HOP-92
HT-29 = tested on: HT-29
KM-20L2 = tested on: KM-20L2
KM12 = tested on: KM12
LOX IMVI = tested on: LOX IMVI
LXFL 529 = tested on: LXFL 529
M14 = tested on: M14
M19-MEL = tested on: M19-MEL
Malme-3M = tested on: Malme-3M
NCI-H226 = tested on: NCI-H226
NCI-H23 = tested on: NCI-H23
NCI-H460 = tested on: NCI-H460
NCI-H522 = tested on: NCI-H522
OVCAR-3 = tested on: OVCAR-3
OVCAR-4 = tested on: OVCAR-4
OVCAR-5 = tested on: OVCAR-5
OVCAR-8 = tested on: OVCAR-8
RXF 393 = tested on: RXF 393
SF-295 = tested on: SF-295
SF-539 = tested on: SF-539
SK-MEL-28 = tested on: SK-MEL-28
SK-MEL-2 = tested on: SK-MEL-2
SN12C = tested on: SN12C
SNB-19 = tested on: SNB-19
SNB-75 = tested on: SNB-75
SNB-78 = tested on: SNB-78
SR = tested on: SR
SW-620 = tested on: SW-620
TK-10 = tested on: TK-10
U-251 = tested on: U-251
UACC-257 = tested on: UACC-257
UO-31 = tested on: UO-31
XF498 = tested on: XF498
A498 = tested on: A498
ACHN = tested on: ACHN
DLD-1 = tested on: DLD-1
EKVX = tested on: EKVX
HCT-15 = tested on: HCT-15
IGROV-1 = tested on: IGROV-1
K562 = tested on: K562
MOLT-4 = tested on: MOLT-4
RPMI-8226 = tested on: RPMI-8226
SF-268 = tested on: SF-268
SK-MEL-5 = tested on: SK-MEL-5
SK-OV-3 = tested on: SK-OV-3
CCRF-CEM = tested on: CCRF-CEM
UACC-62 = tested on: UACC-62

In the case of CN(C)C(=N)c1ccccc1, the GI50 (786-0) is reported as > 100 µM (inactive), the GI50 (A549) is reported as > 100 µM (inactive) and the GI50 (CAKI-1) is reported as > 100 µM (inactive). For the same compound, the GI50 (COLO 205) was > 100 µM (inactive), the GI50 (DMS-114) was > 100 µM (inactive) and the GI50 (DMS-273) was > 100 µM (inactive). For the same compound, the GI50 (HCC 2998) was > 100 µM (inactive), the GI50 (HCT-116) was > 100 µM (inactive) and the GI50 (HL-60) was > 100 µM (inactive). The GI50 (HOP-62) was > 100 µM (inactive), the GI50 (HOP-92) was > 100 µM (inactive) and the GI50 (HT-29) was > 100 µM (inactive). For the same compound, the GI50 (KM-20L2) was > 100 µM (inactive), the GI50 (KM12) was > 100 µM (inactive) and the GI50 (LOX IMVI) was > 100 µM (inactive). The GI50 (LXFL 529) was > 100 µM (inactive), the GI50 (M14) was > 100 µM (inactive) and the GI50 (M19-MEL) was > 100 µM (inactive). For the same compound, the GI50 (Malme-3M) was > 100 µM (inactive), the GI50 (NCI-H226) was > 100 µM (inactive) and the GI50 (NCI-H23) was > 100 µM (inactive). For the same compound, the GI50 (NCI-H460) was > 100 µM (inactive), the GI50 (NCI-H522) was > 100 µM (inactive) and the GI50 (OVCAR-3) was > 100 µM (inactive). The GI50 (OVCAR-4) was > 100 µM (inactive), the GI50 (OVCAR-5) was > 100 µM (inactive) and the GI50 (OVCAR-8) was > 100 µM (inactive). For the same compound, the GI50 (RXF 393) was > 100 µM (inactive), the GI50 (SF-295) was > 100 µM (inactive) and the GI50 (SF-539) was > 100 µM (inactive). For the same compound, the GI50 (SK-MEL-28) was > 100 µM (inactive), the GI50 (SK-MEL-2) was > 100 µM (inactive) and the GI50 (SN12C) was > 100 µM (inactive). For the same compound, the GI50 (SNB-19) was > 100 µM (inactive), the GI50 (SNB-75) was > 100 µM (inactive) and the GI50 (SNB-78) was > 100 µM (inactive). For the same compound, the GI50 (SR) was > 100 µM (inactive), the GI50 (SW-620) was > 100 µM (inactive) and the GI50 (TK-10) was > 100 µM (inactive). The GI50 (U-251) was > 100 µM (inactive), the GI50 (UACC-257) was > 100 µM (inactive) and the GI50 (UO-31) was > 100 µM (inactive). For the same compound, the GI50 (XF498) was > 100 µM (inactive).
COC(=O)Cc1cc(=O)n2c3ccccc3n(C)c2c1C#N was tested, and the GI50 (786-0) was > 100 µM (inactive), the GI50 (A498) was > 100 µM (inactive) and the GI50 (A549) was > 100 µM (inactive). The GI50 (ACHN) was > 100 µM (inactive), the GI50 (CAKI-1) was > 100 µM (inactive) and the GI50 (COLO 205) was > 100 µM (inactive). For the same compound, the GI50 (DLD-1) was > 100 µM (inactive), the GI50 (DMS-114) was > 100 µM (inactive) and the GI50 (DMS-273) was > 100 µM (inactive). For the same compound, the GI50 (EKVX) was > 100 µM (inactive), the GI50 (HCC 2998) was > 100 µM (inactive) and the GI50 (HCT-116) was > 100 µM (inactive). For the same compound, the GI50 (HCT-15) was > 100 µM, the GI50 (HL-60) was > 100 µM (inactive) and the GI50 (HOP-62) was > 100 µM (inactive). For the same compound, the GI50 (HT-29) was > 100 µM (inactive), the GI50 (IGROV-1) was > 100 µM (inactive) and the GI50 (K562) was > 100 µM (inactive). The GI50 (KM-20L2) was > 100 µM (inactive), the GI50 (KM12) was > 100 µM (inactive) and the GI50 (LOX IMVI) was > 100 µM (inactive). The GI50 (M14) was > 100 µM (inactive), the GI50 (M19-MEL) was > 100 µM (inactive) and the GI50 (MOLT-4) was > 100 µM (inactive). For the same compound, the GI50 (Malme-3M) was > 100 µM (inactive), the GI50 (NCI-H226) was > 100 µM (inactive) and the GI50 (NCI-H23) was > 100 µM (inactive). The GI50 (NCI-H460) was > 100 µM (inactive), the GI50 (OVCAR-3) was > 100 µM (inactive) and the GI50 (OVCAR-4) was > 100 µM (inactive). For the same compound, the GI50 (OVCAR-5) was > 100 µM (inactive), the GI50 (OVCAR-8) was > 100 µM (inactive) and the GI50 (RPMI-8226) was > 100 µM (inactive). For the same compound, the GI50 (RXF 393) was > 100 µM (inactive), the GI50 (SF-268) was > 100 µM (inactive) and the GI50 (SF-295) was > 100 µM (inactive). For the same compound, the GI50 (SF-539) was > 100 µM (inactive), the GI50 (SK-MEL-28) was > 100 µM (inactive) and the GI50 (SK-MEL-2) was > 100 µM (inactive). For the same compound, the GI50 (SK-MEL-5) was 52.2 µM (inactive), the GI50 (SK-OV-3) was > 100 µM (inactive) and the GI50 (SN12C) was > 100 µM (inactive). For the same compound, the GI50 (SNB-19) was > 100 µM (inactive), the GI50 (SNB-75) was 68.7 µM (inactive) and the GI50 (SNB-78) was > 100 µM (inactive). The GI50 (SR) was > 100 µM (inactive), the GI50 (SW-620) was > 100 µM (inactive) and the GI50 (TK-10) was > 100 µM (inactive). The GI50 (U-251) was > 100 µM (inactive), the GI50 (UACC-257) was > 100 µM (inactive) and the GI50 (UO-31) was > 100 µM (inactive). The GI50 (XF498) was > 100 µM (inactive).
With Cc1ncc(CI)c(CI)c1O the GI50 (786-0) was 16.9 µM (inactive), the GI50 (A498) was > 100 µM (inactive) and the GI50 (CAKI-1) was 63.2 µM (inactive). For the same compound, the GI50 (CCRF-CEM) was 3.93 µM (inactive), the GI50 (COLO 205) was > 100 µM (inactive) and the GI50 (DLD-1) was 24.7 µM (inactive). For the same compound, the GI50 (DMS-114) was > 100 µM (inactive), the GI50 (DMS-273) was 14.8 µM (inactive) and the GI50 (HCC 2998) was 18.8 µM (inactive). The GI50 (HCT-116) was 15.6 µM (inactive), the GI50 (HL-60) was 2.22 µM (inactive) and the GI50 (HOP-62) was 17.2 µM (inactive). For the same compound, the GI50 (HOP-92) was > 100 µM (inactive), the GI50 (IGROV-1) was > 100 µM (inactive) and the GI50 (K562) was 5.85 µM (inactive). The GI50 (LXFL 529) was > 100 µM (inactive), the GI50 (M14) was > 100 µM (inactive) and the GI50 (M19-MEL) was > 100 µM (inactive). For the same compound, the GI50 (MOLT-4) was 12.7 µM (inactive), the GI50 (Malme-3M) was 17.5 µM (inactive) and the GI50 (NCI-H226) was 2.39 µM (inactive). The GI50 (NCI-H23) was 19.4 µM (inactive), the GI50 (NCI-H460) was > 100 µM (inactive) and the GI50 (NCI-H522) was 3.34 µM (inactive). The GI50 (OVCAR-4) was > 100 µM (inactive), the GI50 (RPMI-8226) was 6.7 µM (inactive) and the GI50 (SF-268) was 24.3 µM (inactive). For the same compound, the GI50 (SF-539) was 23.4 µM (inactive), the GI50 (SK-MEL-28) was 18 µM (inactive) and the GI50 (SK-MEL-2) was 21.3 µM (inactive). For the same compound, the GI50 (SK-OV-3) was > 100 µM (inactive), the GI50 (SN12C) was 17.2 µM (inactive) and the GI50 (SNB-75) was 16.8 µM (inactive). For the same compound, the GI50 (SNB-78) was > 100 µM (inactive), the GI50 (SR) was 12.6 µM (inactive) and the GI50 (UACC-62) was > 100 µM (inactive). For the same compound, the GI50 (UO-31) was 2.5 µM (inactive) and the GI50 (XF498) was 20.1 µM (inactive).
